This experiment concerns NL-RLuc virus. Briefly: Inhibition of HIV replication (NL-RLuc reporter virus in MT-2 cells, luciferase readout). Format: cell-based. The following applies: Human immunodeficiency virus 1, MT2, 120 h. Put shortly: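 MT-2 cells infected with NL4-3-derived NL-RLuc reporter virus (Renilla luciferase replacing part of nef) with serial compound dilutions, RPMI 1640 + 10% FBS; 5 days. Growth by luciferase; EC50 from median effect equation, ≥2 experiments.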

Molecules are shown by their SMILES. Read-outs that look alike come from different tables or passages of the source.

On to `Cc1cc(Cl)ccc1CN1CCc2cc(-c3c(C)nc(C)c([C@H](OC(C)(C)C)C(=O)O)c3N3CCC(C)(C)CC3)ccc2C1` [Compound 131, (S)-2-(tert-butoxy)-2-(5-(2-(4-chloro-2-methylbenzyl)-1,2,3,4-tetrahydroisoquinolin-6-yl)-4-(4,4-dimethylpiperidin-1-yl)-2,6-dimethylpyridin-3-yl)acetic acid], for which, where the note is “read-out: Activity”, the EC50 was less than 0.1 µM.
With `Cc1ccc(CN2CCc3cc(-c4c(C)nc(C)c([C@H](OC(C)(C)C)C(=O)O)c4N4CCC(C)(C)CC4)ccc3C2)cc1Cl` [Compound 132, (S)-2-(tert-butoxy)-2-(5-(2-(3-chloro-4-methylbenzyl)-1,2,3,4-tetrahydroisoquinolin-6-yl)-4-(4,4-dimethylpiperidin-1-yl)-2,6-dimethylpyridin-3-yl)acetic acid], the EC50 (read-out: Activity) is less than 0.1 µM.
The same measure, in the same setting: the value for `Cc1ccc(Cl)cc1CN1CCc2cc(-c3c(C)nc(C)c([C@H](OC(C)(C)C)C(=O)O)c3N3CCC(C)(C)CC3)ccc2C1` [Compound 133, (S)-2-(tert-butoxy)-2-(5-(2-(5-chloro-2-methylbenzyl)-1,2,3,4-tetrahydroisoquinolin-6-yl)-4-(4,4-dimethylpiperidin-1-yl)-2,6-dimethylpyridin-3-yl)acetic acid] was less than 0.1 µM.
For the compound `Cc1cc(CN2CCc3cc(-c4c(C)nc(C)c([C@H](OC(C)(C)C)C(=O)O)c4N4CCC(C)(C)CC4)ccc3C2)ccc1Cl` [Compound 134, (S)-2-(tert-butoxy)-2-(5-(2-(4-chloro-3-methylbenzyl)-1,2,3,4-tetrahydroisoquinolin-6-yl)-4-(4,4-dimethylpiperidin-1-yl)-2,6-dimethylpyridin-3-yl)acetic acid], the EC50 runs as follows: (read-out: Activity) less than 0.1 µM; (read-out: EC50 μM) 0.012 µM.
For `Cc1nc(C)c([C@H](OC(C)(C)C)C(=O)O)c(N2CCC(C)(C)CC2)c1-c1ccc2c(c1)CCN(Cc1c(F)cc(Cl)cc1F)C2` [Compound 135, (S)-2-(tert-butoxy)-2-(5-(2-(4-chloro-2,6-difluorobenzyl)-1,2,3,4-tetrahydroisoquinolin-6-yl)-4-(4,4-dimethylpiperidin-1-yl)-2,6-dimethylpyridin-3-yl)acetic acid], under “read-out: Activity”, the EC50 is less than 0.1 µM.
In the case of `Cc1nc(C)c([C@H](OC(C)(C)C)C(=O)O)c(N2CCC(C)(C)CC2)c1-c1ccc2c(c1)CCN(Cc1c(F)cccc1Cl)C2` [Compound 136, (S)-2-(tert-butoxy)-2-(5-(2-(2-chloro-6-fluorobenzyl)-1,2,3,4-tetrahydroisoquinolin-6-yl)-4-(4,4-dimethylpiperidin-1-yl)-2,6-dimethylpyridin-3-yl)acetic acid], the EC50 (read-out: Activity) is less than 0.1 µM.
For `COc1ccc(CN2CCc3cc(-c4c(C)nc(C)c([C@H](OC(C)(C)C)C(=O)O)c4N4CCC(C)(C)CC4)ccc3C2)cc1Cl` [Compound 137, (S)-2-(tert-butoxy)-2-(5-(2-(3-chloro-4-methoxybenzyl)-1,2,3,4-tetrahydroisoquinolin-6-yl)-4-(4,4-dimethylpiperidin-1-yl)-2,6-dimethylpyridin-3-yl)acetic acid], for the setting “read-out: Activity”, the EC50 is less than 0.1 µM.
The same measure, in the same setting: the value for `COc1cc(CN2CCc3cc(-c4c(C)nc(C)c([C@H](OC(C)(C)C)C(=O)O)c4N4CCC(C)(C)CC4)ccc3C2)ccc1Cl` [Compound 138, (S)-2-(tert-butoxy)-2-(5-(2-(4-chloro-3-methoxybenzyl)-1,2,3,4-tetrahydroisoquinolin-6-yl)-4-(4,4-dimethylpiperidin-1-yl)-2,6-dimethylpyridin-3-yl)acetic acid] was less than 0.1 µM.
For `COc1ccc(C(C)C)cc1CN1CCc2cc(-c3c(C)nc(C)c([C@H](OC(C)(C)C)C(=O)O)c3N3CCC(C)(C)CC3)ccc2C1` [Compound 139, (S)-2-(tert-butoxy)-2-(4-(4,4-dimethylpiperidin-1-yl)-5-(2-(5-isopropyl-2-methoxybenzyl)-1,2,3,4-tetrahydroisoquinolin-6-yl)-2,6-dimethylpyridin-3-yl)acetic acid], the EC50 runs as follows: (read-out: Activity) less than 0.1 µM; (read-out: EC50 μM) 0.03 µM.
As to `COc1cc(CN2CCc3cc(-c4c(C)nc(C)c([C@H](OC(C)(C)C)C(=O)O)c4N4CCC(C)(C)CC4)ccc3C2)ccc1C` [Compound 140, (S)-2-(tert-butoxy)-2-(4-(4,4-dimethylpiperidin-1-yl)-5-(2-(3-methoxy-4-methylbenzyl)-1,2,3,4-tetrahydroisoquinolin-6-yl)-2,6-dimethylpyridin-3-yl)acetic acid], the EC50 (read-out: Activity) was less than 0.1 µM.
As to `COc1ccc(CN2CCc3cc(-c4c(C)nc(C)c([C@H](OC(C)(C)C)C(=O)O)c4N4CCC(C)(C)CC4)ccc3C2)cc1C` [Compound 141, (S)-2-(tert-butoxy)-2-(4-(4,4-dimethylpiperidin-1-yl)-5-(2-(4-methoxy-3-methylbenzyl)-1,2,3,4-tetrahydroisoquinolin-6-yl)-2,6-dimethylpyridin-3-yl)acetic acid], the EC50 (read-out: Activity) was less than 0.1 µM.
Still for that read-out and setting: the result for `COc1c(F)cccc1CN1CCc2cc(-c3c(C)nc(C)c([C@H](OC(C)(C)C)C(=O)O)c3N3CCC(C)(C)CC3)ccc2C1` [Compound 142, (S)-2-(tert-butoxy)-2-(4-(4,4-dimethylpiperidin-1-yl)-5-(2-(3-fluoro-2-methoxybenzyl)-1,2,3,4-tetrahydroisoquinolin-6-yl)-2,6-dimethylpyridin-3-yl)acetic acid] reads less than 0.1 µM; that for `COc1ccc(CN2CCc3cc(-c4c(C)nc(C)c([C@H](OC(C)(C)C)C(=O)O)c4N4CCC(C)(C)CC4)ccc3C2)cc1C(C)C` [Compound 143, (S)-2-(tert-butoxy)-2-(4-(4,4-dimethylpiperidin-1-yl)-5-(2-(3-isopropyl-4-methoxybenzyl)-1,2,3,4-tetrahydroisoquinolin-6-yl)-2,6-dimethylpyridin-3-yl)acetic acid], less than 0.1 µM.
Regarding `Cc1nc(C)c([C@H](OC(C)(C)C)C(=O)O)c(N2CCC(C)(C)CC2)c1-c1ccc2c(c1)CCN(Cc1c(O)cc(F)cc1F)C2` [Compound 144, (S)-2-(tert-butoxy)-2-(5-(2-(2,4-difluoro-6-hydroxybenzyl)-1,2,3,4-tetrahydroisoquinolin-6-yl)-4-(4,4-dimethylpiperidin-1-yl)-2,6-dimethylpyridin-3-yl)acetic acid], the EC50 reads like this: (read-out: Activity) less than 0.1 µM; (read-out: EC50 μM) 0.008 µM.
On to `COc1cccc(Cl)c1CN1CCc2cc(-c3c(C)nc(C)c([C@H](OC(C)(C)C)C(=O)O)c3N3CCC(C)(C)CC3)ccc2C1` [Compound 145, (S)-2-(tert-butoxy)-2-(5-(2-(2-chloro-6-methoxybenzyl)-1,2,3,4-tetrahydroisoquinolin-6-yl)-4-(4,4-dimethylpiperidin-1-yl)-2,6-dimethylpyridin-3-yl)acetic acid], for which, under “read-out: Activity”, the EC50 was less than 0.1 µM.
Consider `COc1ccc(CN2CCc3cc(-c4c(C)nc(C)c([C@H](OC(C)(C)C)C(=O)O)c4N4CCC(C)(C)CC4)ccc3C2)c(F)c1` [Compound 146, (S)-2-(tert-butoxy)-2-(4-(4,4-dimethylpiperidin-1-yl)-5-(2-(2-fluoro-4-methoxybenzyl)-1,2,3,4-tetrahydroisoquinolin-6-yl)-2,6-dimethylpyridin-3-yl)acetic acid], for which the EC50 (read-out: Activity) is less than 0.1 µM.
Still for that read-out and setting: the value for `COc1ccc(CN2CCc3cc(-c4c(C)nc(C)c([C@H](OC(C)(C)C)C(=O)O)c4N4CCC(C)(C)CC4)ccc3C2)c(C)c1C` [Compound 147, (S)-2-(tert-butoxy)-2-(4-(4,4-dimethylpiperidin-1-yl)-5-(2-(4-methoxy-2,3-dimethylbenzyl)-1,2,3,4-tetrahydroisoquinolin-6-yl)-2,6-dimethylpyridin-3-yl)acetic acid] was less than 0.1 µM; that for `COc1cc(C)c(CN2CCc3cc(-c4c(C)nc(C)c([C@H](OC(C)(C)C)C(=O)O)c4N4CCC(C)(C)CC4)ccc3C2)cc1C` [Compound 148, (S)-2-(tert-butoxy)-2-(4-(4,4-dimethylpiperidin-1-yl)-5-(2-(4-methoxy-2,5-dimethylbenzyl)-1,2,3,4-tetrahydroisoquinolin-6-yl)-2,6-dimethylpyridin-3-yl)acetic acid] was less than 0.1 µM.
The same measure, in the same setting: the result for `CCOc1ccc(CN2CCc3cc(-c4c(C)nc(C)c([C@H](OC(C)(C)C)C(=O)O)c4N4CCC(C)(C)CC4)ccc3C2)cc1` [Compound 149, (S)-2-(tert-butoxy)-2-(4-(4,4-dimethylpiperidin-1-yl)-5-(2-(4-ethoxybenzyl)-1,2,3,4-tetrahydroisoquinolin-6-yl)-2,6-dimethylpyridin-3-yl)acetic acid] reads less than 0.1 µM.
Consider `Cc1nc(C)c([C@H](OC(C)(C)C)C(=O)O)c(N2CCC(C)(C)CC2)c1-c1ccc2c(c1)CCN(Cc1ccc(OC(C)C)cc1)C2` [Compound 150, (S)-2-(tert-butoxy)-2-(4-(4,4-dimethylpiperidin-1-yl)-5-(2-(4-isopropoxybenzyl)-1,2,3,4-tetrahydroisoquinolin-6-yl)-2,6-dimethylpyridin-3-yl)acetic acid], for which the EC50 was less than 0.1 µM (read-out: Activity) and 0.021 µM (read-out: EC50 μM).
For `COc1ccc(C(F)(F)F)cc1CN1CCc2cc(-c3c(C)nc(C)c([C@H](OC(C)(C)C)C(=O)O)c3N3CCC(C)(C)CC3)ccc2C1` [Compound 151, (S)-2-(tert-butoxy)-2-(4-(4,4-dimethylpiperidin-1-yl)-5-(2-(2-methoxy-5-(trifluoromethyl)benzyl)-1,2,3,4-tetrahydroisoquinolin-6-yl)-2,6-dimethylpyridin-3-yl)acetic acid], the EC50 (read-out: Activity) is less than 0.1 µM.
The same measure, in the same setting: the result for `Cc1nc(C)c([C@H](OC(C)(C)C)C(=O)O)c(N2CCC(C)(C)CC2)c1-c1ccc2c(c1)CCN(Cc1ccccc1OC(C)C)C2` [Compound 152, (S)-2-(tert-butoxy)-2-(4-(4,4-dimethylpiperidin-1-yl)-5-(2-(2-isopropoxybenzyl)-1,2,3,4-tetrahydroisoquinolin-6-yl)-2,6-dimethylpyridin-3-yl)acetic acid] reads less than 0.1 µM; that for `Cc1nc(C)c([C@H](OC(C)(C)C)C(=O)O)c(N2CCC(C)(C)CC2)c1-c1ccc2c(c1)CCN(Cc1ccccc1OCC(C)C)C2` [Compound 153, (S)-2-(tert-butoxy)-2-(4-(4,4-dimethylpiperidin-1-yl)-5-(2-(2-isobutoxybenzyl)-1,2,3,4-tetrahydroisoquinolin-6-yl)-2,6-dimethylpyridin-3-yl)acetic acid], less than 0.1 µM.
